Source: patent US7790742B2, “Substituted 4-phenyltetrahydroisoquinolines, pharmaceutical compositions thereof, methods for their preparation and therapeutic use” (Sanofi-Aventis Deutschland GmbH, priority 2004, dated 2010)
pIC50: −log10 of the molar value. Blank lines part the entries; values can stand above or below the compound they belong to.

Key:
NHE3 of the rat = NHE3 of the rat (Rattus norvegicus, UniProt P26433); details: read-out: half-maximum inhibitory concentration (IC50); cited from earlier work
NHE3 [1] = molecular target: T1, NHE3 (Homo sapiens, UniProt P48764); details: indirect mechanism; cited from earlier work
T1 construct: host or cells: cells, not specified
T1 sequence (P48764 26-834): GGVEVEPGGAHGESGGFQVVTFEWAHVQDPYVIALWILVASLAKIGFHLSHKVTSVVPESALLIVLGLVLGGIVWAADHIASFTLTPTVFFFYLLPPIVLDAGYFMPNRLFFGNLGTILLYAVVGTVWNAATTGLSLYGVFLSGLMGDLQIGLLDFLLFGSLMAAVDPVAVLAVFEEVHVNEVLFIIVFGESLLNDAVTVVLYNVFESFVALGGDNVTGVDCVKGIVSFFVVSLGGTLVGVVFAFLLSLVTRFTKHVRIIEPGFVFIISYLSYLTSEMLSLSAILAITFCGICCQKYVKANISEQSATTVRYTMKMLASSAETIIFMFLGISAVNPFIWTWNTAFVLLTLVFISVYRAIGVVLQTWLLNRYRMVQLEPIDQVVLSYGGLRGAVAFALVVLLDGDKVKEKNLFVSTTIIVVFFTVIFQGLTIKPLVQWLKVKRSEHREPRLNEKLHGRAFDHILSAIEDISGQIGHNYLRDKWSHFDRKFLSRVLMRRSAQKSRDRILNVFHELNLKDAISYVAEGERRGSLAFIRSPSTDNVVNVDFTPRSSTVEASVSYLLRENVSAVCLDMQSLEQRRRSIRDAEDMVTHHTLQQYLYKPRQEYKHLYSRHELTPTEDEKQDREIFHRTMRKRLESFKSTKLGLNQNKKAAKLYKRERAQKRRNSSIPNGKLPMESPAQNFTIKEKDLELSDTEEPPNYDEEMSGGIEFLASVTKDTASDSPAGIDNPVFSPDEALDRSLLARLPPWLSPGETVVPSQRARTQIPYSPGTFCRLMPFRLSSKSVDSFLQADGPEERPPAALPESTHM

NHE3 [2] = molecular target: T1, NHE3; assay: Tiamenidine inhibitory action on NHE subtypes: NHE3; type: cell-based; details: therapeutically utilizable concentration range
Text: (§1) Compounds which are similar to clonidine but have a thiophene instead of the phenyl ring are disclosed in DE1941761. The structures of formula I disclosed and claimed herein differ from existing compounds by the fusing of a thieno-substituent to the imidazole moiety of the formula I or II. This distinction allows the above-described clonidine-like undesired cardiovascular effects mediated by alpha-adrenoreceptor action to be eliminated. […] The application WO03053434 proposes NHE3 inhibitors of the imidazoline type, the patent application WO 03101984 of the thiophene type and the application DE10304374 of the imidazole type.

NHE2 = molecular target: T2, NHE2 (Homo sapiens, UniProt Q9UBY0); assay: Tiamenidine inhibitory action on NHE subtypes: NHE2; type: cell-based; details: therapeutically utilizable concentration range
T2 sequence (Q9UBY0 1-812): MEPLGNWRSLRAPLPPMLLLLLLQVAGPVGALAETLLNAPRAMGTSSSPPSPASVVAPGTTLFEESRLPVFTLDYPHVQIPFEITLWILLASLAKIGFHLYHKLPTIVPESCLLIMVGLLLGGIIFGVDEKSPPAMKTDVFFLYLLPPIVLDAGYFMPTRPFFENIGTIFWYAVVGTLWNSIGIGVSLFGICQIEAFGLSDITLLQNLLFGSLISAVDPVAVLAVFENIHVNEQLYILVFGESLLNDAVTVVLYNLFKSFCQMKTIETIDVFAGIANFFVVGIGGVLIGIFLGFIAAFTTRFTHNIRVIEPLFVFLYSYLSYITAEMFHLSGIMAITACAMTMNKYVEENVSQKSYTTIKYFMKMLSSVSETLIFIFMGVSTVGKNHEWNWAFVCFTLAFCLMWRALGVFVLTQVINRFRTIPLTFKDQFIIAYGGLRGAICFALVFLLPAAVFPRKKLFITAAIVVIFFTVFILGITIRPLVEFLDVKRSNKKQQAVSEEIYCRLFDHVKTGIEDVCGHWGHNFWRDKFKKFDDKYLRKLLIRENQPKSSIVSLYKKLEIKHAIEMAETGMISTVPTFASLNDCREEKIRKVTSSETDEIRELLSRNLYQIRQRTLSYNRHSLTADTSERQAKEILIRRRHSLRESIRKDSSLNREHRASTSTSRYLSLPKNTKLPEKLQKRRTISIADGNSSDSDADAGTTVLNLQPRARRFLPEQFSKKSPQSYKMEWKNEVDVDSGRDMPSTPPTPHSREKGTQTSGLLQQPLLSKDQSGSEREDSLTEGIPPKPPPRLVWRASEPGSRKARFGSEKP
Text: as §1

NHE5 = molecular target: T3, NHE5 (Homo sapiens, UniProt Q14940); assay: Tiamenidine inhibitory action on NHE subtypes: NHE5; type: cell-based; details: therapeutically utilizable concentration range
T3 sequence (Q14940 1-896): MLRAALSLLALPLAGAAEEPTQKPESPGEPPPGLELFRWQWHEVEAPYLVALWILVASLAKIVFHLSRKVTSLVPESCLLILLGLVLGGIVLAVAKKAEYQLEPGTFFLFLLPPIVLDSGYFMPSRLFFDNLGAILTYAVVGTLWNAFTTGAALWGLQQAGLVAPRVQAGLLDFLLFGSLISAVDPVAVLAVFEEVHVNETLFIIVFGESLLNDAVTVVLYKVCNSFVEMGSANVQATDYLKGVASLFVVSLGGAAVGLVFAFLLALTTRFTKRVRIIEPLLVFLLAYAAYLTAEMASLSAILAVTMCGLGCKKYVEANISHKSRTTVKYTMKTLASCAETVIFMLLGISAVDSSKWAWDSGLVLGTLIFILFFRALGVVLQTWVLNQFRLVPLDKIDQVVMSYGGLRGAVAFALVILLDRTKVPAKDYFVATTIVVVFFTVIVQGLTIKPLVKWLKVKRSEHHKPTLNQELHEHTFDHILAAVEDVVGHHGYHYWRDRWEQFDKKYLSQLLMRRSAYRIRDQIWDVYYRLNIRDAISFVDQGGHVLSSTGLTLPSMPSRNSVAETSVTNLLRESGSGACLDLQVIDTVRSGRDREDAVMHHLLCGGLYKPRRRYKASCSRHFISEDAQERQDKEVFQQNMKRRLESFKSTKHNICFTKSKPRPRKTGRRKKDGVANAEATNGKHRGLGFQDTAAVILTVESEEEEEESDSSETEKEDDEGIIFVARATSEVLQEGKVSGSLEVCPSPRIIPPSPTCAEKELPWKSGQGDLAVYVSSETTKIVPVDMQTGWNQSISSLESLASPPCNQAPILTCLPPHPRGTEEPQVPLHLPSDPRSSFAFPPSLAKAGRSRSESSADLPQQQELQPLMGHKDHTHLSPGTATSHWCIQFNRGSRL
Text: as §1

NHE1 = NHE1 (Homo sapiens, UniProt P19634); assay: Tiamenidine inhibitory action on NHE subtypes: NHE1; type: cell-based; details: therapeutically utilizable concentration range
Text: as §1

Chain of NHE3 of the rat (P26433 29-831): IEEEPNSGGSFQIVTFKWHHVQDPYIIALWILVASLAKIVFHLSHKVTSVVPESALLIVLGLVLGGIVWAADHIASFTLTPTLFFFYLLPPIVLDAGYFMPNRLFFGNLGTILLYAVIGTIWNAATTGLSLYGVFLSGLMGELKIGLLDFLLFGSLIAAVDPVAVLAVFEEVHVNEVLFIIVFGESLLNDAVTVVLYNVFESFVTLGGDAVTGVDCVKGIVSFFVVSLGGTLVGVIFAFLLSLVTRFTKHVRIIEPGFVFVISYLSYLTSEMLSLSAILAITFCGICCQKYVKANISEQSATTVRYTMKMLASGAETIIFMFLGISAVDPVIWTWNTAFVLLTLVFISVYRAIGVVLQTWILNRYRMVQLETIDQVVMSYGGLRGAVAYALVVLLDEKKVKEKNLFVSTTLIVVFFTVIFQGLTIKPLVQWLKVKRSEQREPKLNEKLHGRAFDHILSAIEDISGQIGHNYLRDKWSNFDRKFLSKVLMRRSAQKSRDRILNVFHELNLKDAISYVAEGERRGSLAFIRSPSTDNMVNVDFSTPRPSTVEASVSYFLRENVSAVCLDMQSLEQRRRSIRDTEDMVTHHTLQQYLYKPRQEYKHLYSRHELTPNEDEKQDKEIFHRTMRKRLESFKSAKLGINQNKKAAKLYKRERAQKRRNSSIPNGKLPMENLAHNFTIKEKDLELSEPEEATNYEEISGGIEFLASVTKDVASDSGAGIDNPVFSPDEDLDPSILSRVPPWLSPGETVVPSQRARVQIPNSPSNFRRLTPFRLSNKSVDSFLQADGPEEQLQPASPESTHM
Chain of NHE1 (P19634 whole entry, species assumed): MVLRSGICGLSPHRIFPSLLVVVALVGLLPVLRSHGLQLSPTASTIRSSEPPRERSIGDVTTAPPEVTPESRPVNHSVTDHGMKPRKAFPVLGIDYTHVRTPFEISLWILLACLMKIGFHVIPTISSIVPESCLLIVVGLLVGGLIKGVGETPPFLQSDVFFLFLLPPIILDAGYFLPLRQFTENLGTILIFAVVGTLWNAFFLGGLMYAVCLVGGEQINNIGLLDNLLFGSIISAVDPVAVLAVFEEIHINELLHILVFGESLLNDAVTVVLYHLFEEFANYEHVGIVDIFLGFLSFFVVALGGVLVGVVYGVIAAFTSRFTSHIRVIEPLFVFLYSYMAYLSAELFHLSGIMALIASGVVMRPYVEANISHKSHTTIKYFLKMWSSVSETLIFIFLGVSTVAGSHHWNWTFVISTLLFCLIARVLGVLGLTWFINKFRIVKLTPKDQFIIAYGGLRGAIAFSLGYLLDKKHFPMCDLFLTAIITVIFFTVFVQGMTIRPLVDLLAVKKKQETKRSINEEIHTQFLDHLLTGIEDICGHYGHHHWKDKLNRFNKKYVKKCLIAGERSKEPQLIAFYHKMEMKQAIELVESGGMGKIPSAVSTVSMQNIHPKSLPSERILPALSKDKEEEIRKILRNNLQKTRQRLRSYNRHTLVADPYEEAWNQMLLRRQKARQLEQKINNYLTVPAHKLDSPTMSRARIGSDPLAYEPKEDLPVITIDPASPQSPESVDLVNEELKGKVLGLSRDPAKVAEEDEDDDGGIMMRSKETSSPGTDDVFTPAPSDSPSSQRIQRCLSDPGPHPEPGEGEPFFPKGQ

SMILES: Clc1cccc(Cl)c1N=C1NCCN1 [Clonidine]
pIC50 (NHE3 of the rat): 3.21

SMILES: CC(C)[C@@H](CC[C@@H](C)[C@H]1CC[C@H]2[C@@H]3[C@H](O)C[C@H]4C[C@@H](NCCCNCCCCN)CC[C@]4(C)[C@H]3CC[C@]12C)OS(=O)(=O)O [squalamine]
time to maximum strength of action (NHE3 [1]): after one hour

inhibitory action on NHE3 (NHE3 [2]): no relevant inhibitory actions
inhibitory action on NHE2 (NHE2): no relevant inhibitory actions
inhibitory action on NHE5 (NHE5): no relevant inhibitory actions
inhibitory action on NHE1 (NHE1): no relevant inhibitory actions
SMILES: Cc1csc(Cl)c1NC1=NCCN1 [tiamenidine]
